Values after ≈ are worked out from the molar mass of the structure shown. Read-outs that look alike come from different tables or passages of the source.
Key:
Type in all cases: physicochemical
[1] = Competitive pulping of API (free base Form A) and Form B in saturated DCM or water solution at 50° C., XRPD
Method: A saturated solution of API (free base Form A) in DCM and water was prepared. Approximately 10 mg of API (free base Form A) and free base crystal form Form B was weighed respectively and added into a 4 ml glass bottle, and 1 mL of the saturated solution was added. […] The resulting solid was subjected to XRPD testing.

[2] = Solid stability of crystal forms (80° C., light exposure, 25° C./60% RH, 40° C./75% RH); purity by liquid chromatography and XRPD of the solids
Method: A certain amount of API and malate crystal form VII-A were weighed and added into a liquid phase vial, and a total of 9 parallels were prepared. The 9 parallels were placed separately in 80° C. (open); 25° C., 60% RH (open); 40° C., 75% RH (open); and light stability box closed). The stabilities under conditions of: 80° C. for one day, light exposure for 10 days, as well as 25° C., 60% RH and 40° C., 75% RH for one and two weeks were tested, and the XRPD of the solids were measured.
A certain amount of crystal form B was weighed and added into a liquid phase vial, and a total of 9 parallels were prepared. 9 parallels were placed separately in 80° C.; 25° C., 60% RH, 40° C., 75% RH; and light stability boxe.

[3] = Dynamic moisture adsorption (DVS), hygroscopicity
Method: DSV pattern determination method: Dynamic moisture adsorption was performed using Intrinsic DVS. In step mode, the sample is subjected to loop testing at a relative humidity of 0-90%. The sample is analyzed at 10% RH. The dm/dt is set to 0.002 to achieve equilibrium between the sample and the room environment.
Approximately 250 mg of API was weighed and added into a 4 ml glass vial, and 2.5 ml of ethyl acetate was added. The mixture was stirred overnight under magnetic stirring at 50° C., cooled to room temperature, and then filtered, and the obtained solid was dried in vacuum overnight in a 50° C. oven. The resulting solid was free base crystal form Form B. The free base crystal form Form B was subjected to various characterization.

[4] = Solubility at 37° C. in buffer solutions with different pH (about 10 mg in 1 ml, 2 h and 24 h); filtrate concentration and pH, XRPD of remaining solid; settings: for solubility at 2 h / solubility at 24 h: read-out: Solubility at 37° C.
Method: Approximately 10 mg of malate crystal form VII-A and free base Form A were weighed separately, and 1 ml of buffer solutions with different pH were added to make the solution supersaturated, and the mixtures were stirred at 37° C. for 2 h and 24 hours. The samples were filtered, and the filtrates were measured to determine the concentration and pH value, and the remaining solid was subjected to XRPD determination. The specific results were as follows: […]

solid crystal form obtained by competitive pulping ([1]; API and Form B together in DCM, 50° C., 3 days, XRPD): tended to approach Form L
appearance after competitive pulping ([1]; API and Form B together in DCM, after 5 days of beating): became oily
crystal form obtained by competitive pulping ([1]; API and Form B together in water, 50° C., 3 days, XRPD): a mixture of Form B and API
XRPD results ([1]; competitive pulping of API and Form B, DCM, 50° C., 3 days): Form K
Crystal form ([2]; 25° C., 60% RH, 1 week): Unchanged
Degradation ([2]; 25° C., 60% RH, 1 week): 0.00%
Purity ([2]; 25° C., 60% RH, 1 week): 97.69%
Crystal form ([2]; 25° C., 60% RH, 2 weeks): Unchanged
Degradation ([2]; 25° C., 60% RH, 2 weeks): 0.00%
Purity ([2]; 25° C., 60% RH, 2 weeks): 97.67%
Crystal form ([2]; 40° C., 75% RH, 1 week): Unchanged
Degradation ([2]; 40° C., 75% RH, 1 week): 0.00%
Purity ([2]; 40° C., 75% RH, 1 week): 97.70%
Crystal form ([2]; 40° C., 75% RH, 2 weeks): Unchanged
Degradation ([2]; 40° C., 75% RH, 2 weeks): 0.01%
Purity ([2]; 40° C., 75% RH, 2 weeks): 97.66%
physical and chemical stability ([2]; 80° C. 1 day, light 10 days, 25° C./60% RH and 40° C./75% RH 1 and 2 weeks): good physical and chemical stability
Crystal form ([2]; 80° C., 1 day): Unchanged
Degradation ([2]; 80° C., 1 day): 0.17%
Purity ([2]; 80° C., 1 day): 97.50%
Crystal form ([2]; Light control, 10 days): Unchanged
Degradation ([2]; Light control, 10 days): 0.00%
Purity ([2]; Light control, 10 days): 97.67%
Crystal form ([2]; Light exposure, 10 days): Unchanged
Degradation ([2]; Light exposure, 10 days): 0.04%
Purity ([2]; Light exposure, 10 days): 97.63%
Purity ([2]; initial): 97.67%
crystal form before and after DVS testing [3]: did not change
solubility compared to API ([4]; 37° C., pH 6.8, pH 7.4, FaSSIF and water): improved compared to API
solubility at 2 h ([4]; FaSSIF, 37 °C, fassif, thermodynamic from solid, medium FaSSIF, 2 h): 1190 µg/mL (≈ 2070 µM)
solubility at 24 h ([4]; FaSSIF, 37 °C, fassif, thermodynamic from solid, medium FaSSIF, 24 h): 1400 µg/mL (≈ 2440 µM)
solubility at 2 h ([4]; FeSSIF, 37 °C, fessif, thermodynamic from solid, medium FeSSIF, 2 h): > 10000 µg/mL
solubility at 24 h ([4]; FeSSIF, 37 °C, fessif, thermodynamic from solid, medium FeSSIF, 24 h): > 10000 µg/mL
solubility at 2 h ([4]; SGF, 37 °C, simulated gastric fluid, thermodynamic from solid, medium SGF, 2 h): > 10000 µg/mL
solubility at 24 h ([4]; SGF, 37 °C, simulated gastric fluid, thermodynamic from solid, medium SGF, 24 h): > 10000 µg/mL
solubility at 2 h ([4]; buffer solution pH 6.8, 37 °C, pH 6.8, aqueous buffer, thermodynamic from solid, medium pH 6.8, 2 h): 310 µg/mL (≈ 539 µM)
solubility at 24 h ([4]; buffer solution pH 6.8, 37 °C, pH 6.8, aqueous buffer, thermodynamic from solid, medium pH 6.8, 24 h): 250 µg/mL (≈ 436 µM)
solubility ([4]; buffer solutions: pH 1.2, pH 3.0, pH 4.5, FeSSIF, SGF, 37 °C, aqueous buffer, thermodynamic from solid, 37° C., pH 1.2, pH 3.0, pH 4.5, FeSSIF, and SGF buffer): > 10000 µg/mL
Crystal form ([4]; medium FaSSIF, XRPD of remaining solid): Form B
pH (24 h) ([4]; medium FaSSIF, filtrate, 37° C.): 6.755
pH (24 h) ([4]; medium FeSSIF, filtrate, 37° C.): 5.724
Solubility at 37° C. ([4]; medium H2O, 24 h): 17.9 µg/mL (≈ 31.1 µM)
Crystal form ([4]; medium H2O, XRPD of remaining solid): Form B
pH (24 h) ([4]; medium H2O, filtrate, 37° C.): 7.197
pH (24 h) ([4]; medium SGF, filtrate, 37° C.): 1.910
Solubility at 37° C. ([4]; medium pH 1.2, 2 h): >10000 µg/mL
Solubility at 37° C. ([4]; medium pH 1.2, 24 h): >10000 µg/mL
pH (24 h) ([4]; medium pH 1.2, filtrate, 37° C.): 1.925
Solubility at 37° C. ([4]; medium pH 3.0, 2 h): >10000 µg/mL
Solubility at 37° C. ([4]; medium pH 3.0, 24 h): >10000 µg/mL
pH (24 h) ([4]; medium pH 3.0, filtrate, 37° C.): 4.892
Solubility at 37° C. ([4]; medium pH 4.5, 2 h): >10000 µg/mL
Solubility at 37° C. ([4]; medium pH 4.5, 24 h): >10000 µg/mL
pH (24 h) ([4]; medium pH 4.5, filtrate, 37° C.): 6.062
Crystal form ([4]; medium pH 6.8, XRPD of remaining solid): Form B
pH (24 h) ([4]; medium pH 6.8, filtrate, 37° C.): 6.813
Solubility at 37° C. ([4]; medium pH 7.4, 2 h): 47.2 µg/mL (≈ 82.1 µM)
Solubility at 37° C. ([4]; medium pH 7.4, 24 h): 39.9 µg/mL (≈ 69.4 µM)
Crystal form ([4]; medium pH 7.4, XRPD of remaining solid): Form B
pH (24 h) ([4]; medium pH 7.4, filtrate, 37° C.): 7.311
crystal form in the buffers ([4]; remaining solids, XRPD): remained unchanged
solubility at 2 h ([4]; water, 37 °C, water, thermodynamic from solid, medium H2O, 2 h): 39.5 µg/mL (≈ 68.7 µM)
SMILES: CCc1nc2c(N)ncc(-c3ccc(N4CCC(N5CCN(CC)CC5)CC4)c(OC)c3)c2nc1NC1CCOCC1 [Form B, 3-ethyl-8-(4-(4-(4-ethylpiperazin-1-yl)piperidin-1-yl)-3-methoxyphenyl)-N2-(tetrahydro-2H-pyran-4-yl) pyridino [3,4-b]pyrazine-2,5-diamine]

From US20250101017A1, “SALT CRYSTAL FORM AND FREE BASE CRYSTAL FORM OF KINASE INHIBITOR” (CYTOSINLAB THERAPEUTICS CO., LTD., priority 2022, published 2025)
